Measured values published in US20230278972A1, “SUBSTITUTED HALOALKYL SULFONANILIDE HERBICIDES” (FMC Corporation, priority 2020, published 2023).

Key:
Format in all cases: in vivo
[1] = test system: wheat (Triticum aestivum); test: Test A postemergence, wheat; conditions: Postemergence, 0 to 100 scale (0 no effect, 100 complete control)
How it was run: (§1)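 Directed soil spray at planting gave the preemergence treatment, while foliar application to one- to two-leaf seedlings (2–10 cm) gave the postemergence one; pots held a loam and sand mixture and chemicals were carried in a non-phytotoxic solvent with surfactant.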

[2] = test system: blackgrass (Alopecurus myosuroides); test: Test A postemergence, blackgrass; conditions: Postemergence, 0 to 100 scale (0 no effect, 100 complete control)
How it was run: (§2)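 Seeds are sown in loam mixed with sand and sprayed on the soil surface right after planting for the preemergence test. Postemergence pots are sprayed once seedlings reach 2 to 10 cm at the one- to two-leaf stage. The same surfactant-containing, non-phytotoxic solvent formulation serves both.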

kochia (Bassia scoparia) [3] = test: Test A postemergence, kochia; conditions: Postemergence, 0 to 100 scale (0 no effect, 100 complete control)
How it was run: as §2

corn (Zea mays) = test: Test A postemergence, corn; conditions: Postemergence, 0 to 100 scale (0 no effect, 100 complete control)
How it was run: as §2

[4] = test system: barnyardgrass (Echinochloa crus-galli); test: Test A preemergence, barnyardgrass; conditions: Preemergence; for Plant response rating, Barnyardgrass: 0 to 100 scale (0 no effect, 100 complete control)
How it was run: as §2

[5] = test system: galium (catchweed bedstraw, Galium aparine); test: Test A postemergence, galium; conditions: Postemergence, 0 to 100 scale (0 no effect, 100 complete control)
How it was run: as §1

[6] = test system: Ryegrass, Italian (Italian ryegrass, Lolium multiflorum); test: Test A postemergence, Ryegrass, Italian; conditions: Postemergence, 0 to 100 scale (0 no effect, 100 complete control)
How it was run: as §2

[7] = test system: pigweed (Amaranthus retroflexus); test: Test A postemergence, pigweed; conditions: Postemergence, 0 to 100 scale (0 no effect, 100 complete control)
How it was run: as §2

kochia (Bassia scoparia) [8] = test: Test A preemergence, kochia; conditions: Preemergence; for Plant response rating, Kochia: 0 to 100 scale (0 no effect, 100 complete control); for Kochia plant response rating: 125 g ai/ha, visual injury on 0 to 100 scale (0 no effect, 100 complete control), approximately 10 days
How it was run: as §2

[9] = test system: pigweed (Amaranthus retroflexus); test: Test A preemergence, pigweed; conditions: for Plant response rating, Pigweed: 0 to 100 scale (0 no effect, 100 complete control); for Pigweed plant response rating: 125 g ai/ha, visual injury on 0 to 100 scale (0 no effect, 100 complete control), approximately 10 days
How it was run: as §1

[10] = test system: Ryegrass, Italian (Italian ryegrass, Lolium multiflorum); test: Test A preemergence, Ryegrass, Italian; conditions: Preemergence; for Plant response rating, Ryegrass, Italian: 0 to 100 scale (0 no effect, 100 complete control); for Ryegrass, Italian plant response rating: 125 g ai/ha, visual injury on 0 to 100 scale (0 no effect, 100 complete control), approximately 10 days
How it was run: as §2

[11] = test system: ragweed (common ragweed, Ambrosia artemisiifolia); test: Test A postemergence, ragweed; conditions: Postemergence, 0 to 100 scale (0 no effect, 100 complete control)
How it was run: as §2

[12] = test system: Foxtail, Giant (giant foxtail, Setaria faberi); test: Test A preemergence, Foxtail, Giant; conditions: Preemergence; for Plant response rating, Foxtail, Giant: 0 to 100 scale (0 no effect, 100 complete control); for Foxtail, Giant plant response rating: 125 g ai/ha, visual injury on 0 to 100 scale (0 no effect, 100 complete control), approximately 10 days
How it was run: as §2

[13] = test system: Foxtail, Giant (giant foxtail, Setaria faberi); test: Test A postemergence, Foxtail, Giant; conditions: Postemergence, 0 to 100 scale (0 no effect, 100 complete control)
How it was run: as §2

[14] = test system: barnyardgrass (Echinochloa crus-galli); test: Test A postemergence, barnyardgrass; conditions: Postemergence, 0 to 100 scale (0 no effect, 100 complete control)
How it was run: as §1

[15] = 1000 g ai/ha, visual injury, approx. 10 days
[16] = 125 g ai/ha, visual injury approx. 10 days
[17] = 500 g ai/ha, visual injury, approx. 10 days

For `Cc1cc(C)c(C(=O)N2CCSCC2)cc1NS(=O)(=O)C(F)(F)F` [Compound 12], the “Plant response rating, Wheat” value [1, 15] was 60, the “Plant response rating, Blackgrass” value [2, 15] was 30 and the “Plant response rating, Kochia” value (kochia (Bassia scoparia) [3]; [15]) was 70. The “Plant response rating, Corn” value (corn (Zea mays); [15]) was 20, the “Plant response rating, Barnyardgrass” value ([4]; 1000 g ai/ha) was 100 and the “Plant response rating, Galium” value [5, 15] was 90. The “Plant response rating, Ryegrass, Italian” value [6, 15] was 90, the “Plant response rating, Pigweed” value [7, 15] was 80 and the “Plant response rating, Kochia” value (kochia (Bassia scoparia) [8]; 1000 g ai/ha) was 90. For the same molecule, the “Plant response rating, Pigweed” value ([9]; 1000 g ai/ha) was 100, the “Plant response rating, Ryegrass, Italian” value ([10]; 1000 g ai/ha) was 100 and the “Plant response rating, Ragweed” value [11, 15] was 60. For the same molecule, the “Plant response rating, Foxtail, Giant” value ([12]; 1000 g ai/ha) was 100, the “Plant response rating, Foxtail, Giant” value [13, 15] was 90 and the “Plant response rating, Barnyardgrass” value [14, 15] was 80.
In the case of `Cc1cc(C2CC2)c(NS(=O)(=O)C(F)(F)F)cc1C(=O)N1CCOCC1` [Compound 13], the “Plant response rating, Wheat” value [1, 16] is reported as 0, the “Plant response rating, Wheat” value [1, 17] is reported as 0 and the “Plant response rating, Blackgrass” value [2, 16] is reported as 0. For the same molecule, the “Plant response rating, Blackgrass” value [2, 17] was 0, the “Plant response rating, Kochia” value (kochia (Bassia scoparia) [3]; [16]) was 0 and the “Plant response rating, Kochia” value (kochia (Bassia scoparia) [3]; [17]) was 10. The “Plant response rating, Corn” value (corn (Zea mays); [16]) was 0, the “Plant response rating, Corn” value (corn (Zea mays); [17]) was 0 and the “Barnyardgrass plant response rating” value ([4]; 125 g ai/ha, visual injury on 0 to 100 scale (0 no effect, 100 complete control), approximately 10 days) was 60. The “Plant response rating, Barnyardgrass” value ([4]; 500 g ai/ha) was 100, the “Plant response rating, Galium” value [5, 16] was 20 and the “Plant response rating, Galium” value [5, 17] was 30. The “Plant response rating, Ryegrass, Italian” value [6, 16] was 0, the “Plant response rating, Ryegrass, Italian” value [6, 17] was 0 and the “Plant response rating, Pigweed” value [7, 16] was 0. For the same molecule, the “Plant response rating, Pigweed” value [7, 17] was 20, the “Kochia plant response rating” value (kochia (Bassia scoparia) [8]) was 20 and the “Plant response rating, Kochia” value (kochia (Bassia scoparia) [8]; 500 g ai/ha) was 50. The “Pigweed plant response rating” value [9] was 20, the “Plant response rating, Pigweed” value ([9]; 500 g ai/ha) was 60 and the “Ryegrass, Italian plant response rating” value [10] was 20. For the same molecule, the “Plant response rating, Ryegrass, Italian” value ([10]; 500 g ai/ha) was 30, the “Plant response rating, Ragweed” value [11, 16] was 10 and the “Plant response rating, Ragweed” value [11, 17] was 30. For the same molecule, the “Foxtail, Giant plant response rating” value [12] was 0, the “Plant response rating, Foxtail, Giant” value ([12]; 500 g ai/ha) was 10 and the “Plant response rating, Foxtail, Giant” value [13, 16] was 0. For the same molecule, the “Plant response rating, Foxtail, Giant” value [13, 17] was 10, the “Plant response rating, Barnyardgrass” value [14, 16] was 0 and the “Plant response rating, Barnyardgrass” value [14, 17] was 40.
For `Cc1cc(Br)c(NS(=O)(=O)C(F)(F)F)cc1C(=O)N1CCOCC1` [Compound 14], the “Plant response rating, Wheat” value [1, 16] was 30, the “Plant response rating, Wheat” value [1, 17] was 70 and the “Plant response rating, Blackgrass” value [2, 16] was 10. For the same molecule, the “Plant response rating, Blackgrass” value [2, 17] was 40, the “Plant response rating, Kochia” value (kochia (Bassia scoparia) [3]; [16]) was 40 and the “Plant response rating, Kochia” value (kochia (Bassia scoparia) [3]; [17]) was 70. The “Plant response rating, Corn” value (corn (Zea mays); [16]) was 0, the “Plant response rating, Corn” value (corn (Zea mays); [17]) was 20 and the “Plant response rating, Barnyardgrass” value ([4]; 500 g ai/ha) was 90. The “Plant response rating, Galium” value [5, 16] was 70, the “Plant response rating, Galium” value [5, 17] was 80 and the “Plant response rating, Ryegrass, Italian” value [6, 16] was 0. For the same molecule, the “Plant response rating, Ryegrass, Italian” value [6, 17] was 30, the “Plant response rating, Pigweed” value [7, 16] was 60 and the “Plant response rating, Pigweed” value [7, 17] was 90. For the same molecule, the “Kochia plant response rating” value (kochia (Bassia scoparia) [8]) was 70, the “Plant response rating, Kochia” value (kochia (Bassia scoparia) [8]; 500 g ai/ha) was 90 and the “Pigweed plant response rating” value [9] was 80. For the same molecule, the “Plant response rating, Pigweed” value ([9]; 500 g ai/ha) was 90, the “Ryegrass, Italian plant response rating” value [10] was 60 and the “Plant response rating, Ryegrass, Italian” value ([10]; 500 g ai/ha) was 100. The “Plant response rating, Ragweed” value [11, 16] was 60, the “Plant response rating, Ragweed” value [11, 17] was 70 and the “Foxtail, Giant plant response rating” value [12] was 70. The “Plant response rating, Foxtail, Giant” value ([12]; 500 g ai/ha) was 80, the “Plant response rating, Foxtail, Giant” value [13, 16] was 40 and the “Plant response rating, Foxtail, Giant” value [13, 17] was 70. For the same molecule, the “Plant response rating, Barnyardgrass” value [14, 16] was 40 and the “Plant response rating, Barnyardgrass” value [14, 17] was 80.
